The results in this text go back to patent US6495348B1, “Mitomycin biosynthetic gene cluster” (priority 1993, dated 2002).

Experiment [1] has as its system PJS103. On the procedure: Construction of mct-mrd co-expression plasmid. […] The fragment contained the mrd gene under the control of the T7 promoter, including transcriptional terminator sequences (rrnB T1) upstream and downstream of mrd.
The cultures were grown overnight at 37° C. and colony-forming units (CFUS) were determined.
Co-expression of mct and mrd in E. coli. To address the notion that MRD and MCT proteins participate as components of a binding protein-dependent drug export system, the mct and mrd genes were co-expressed in E. coli.

For experiment [2], the system named is S. lavendulae wild-type. In words: MC resistance of S. lavendulae, plate count. Format: cell-based, Streptomyces lavendulae. The source says: To establish a physiological role for MCT in S. lavendulae, the corresponding gene (mct) was inactivated by insertion of the aphII gene from transposon Tn5 to give pDHS7704.

With `COC1=C(C)C(=O)C2=C(C1=O)[C@H](COC(N)=O)[C@@]1(O)[C@@H]3[C@H](CN21)N3C` (some centres unmarked) [Mitomycin B, mitomycin B], the “resistance to mitomycin B” value in experiment [1] is on record as “high-level resistance”.
As for `CO[C@@]12[C@H](COC(N)=O)C3=C(C(=O)C(C)=C(N)C3=O)N1C[C@@H]1N[C@@H]12` [MC, mitomycin C], the MC resistance level in experiment [2] was more than 150 µg/mL.
